A melting point compilation (Tetko et al.)

Conditions: a range is the spread between reports

melting point	SMILES
157 to 159 °C	Cc1ccc(S(=O)(=O)c2ccc(C)cc2)cc1
198 to 199 °C	O=C(O)c1ccc(C(=O)c2ccccc2)cc1
139 to 140 °C	CC(=O)N(O)CCCCCNC(=O)CCC(=O)N(O)CCCCCNC(=O)CCC(=O)N(O)CCCCCN
-62.8 to -62 °C	Cc1ccc(C)o1
44 to 47 °C	CCCCCCCCCCCCCCC(C)O (centres undefined)
167 to 168 °C	Nc1cc(Cl)c(O)c(Cl)c1
121 to 122 °C	C=C(CC)C(=O)c1ccc(OCC(=O)O)c(Cl)c1Cl
38 to 41 °C	N#Cc1ccccc1-c1ccccc1
132 to 134 °C	Oc1ccc2ccccc2c1/N=N/c1ccccc1
-135 °C	C1=CCCC1
131 to 132 °C	CN1C(=O)C(=O)c2ccccc21
28 to 28.2 °C	CCCCCCCCCCCCCCCCCC
42 to 44.5 °C	CC(O)CNCC(C)O (centres undefined)
142 °C	CC12CCC(=O)C=C1CCC1C2CCC2(C)C(C(=O)CO)CCC12 (centres undefined)
152 to 153 °C	CNc1ccc([N+](=O)[O-])cc1
59 to 61.5 °C	COc1ccc(C#N)cc1
96 to 97.5 °C	Nc1ccc(F)c([N+](=O)[O-])c1
79 to 79.5 °C	Nc1ccccc1Nc1ccccc1
14.5 to 15 °C	CCCCCC(=O)CCCCC
130 to 132 °C	Ic1ccc(I)cc1
89 to 92 °C	CC(C)(O)CCC(C)(C)O
47.5 to 51 °C	Oc1ccccc1C=Nc1ccccc1
252 to 253 °C	COc1ccc(C(=O)O)cc1O
84.5 to 88 °C	Cc1ccc(S(=O)(=O)NC2CCCCC2)cc1
38 to 38.5 °C	COc1cccc([N+](=O)[O-])c1

melting point	SMILES
151 to 154 °C	O/N=C(\c1ccccc1)C(O)c1ccccc1 (centres undefined)
130 to 133 °C	O=C(O)c1cc(F)ccc1F
82 to 82.5 °C	O=C1c2ccccc2C(=O)N1CCBr
122 °C	OCC(O)C(O)CO (centres undefined)
164 to 166 °C	O=C1OC(=O)C2C3C=CC(C3)C12 (centres undefined)
221 to 225 °C	COc1ccc(-c2cc(=O)c3c(O)c(OC)c(O)cc3o2)cc1
79 to 82 °C	CNC(=O)c1ccccc1
-47 to -46 °C	CC(C)C(=O)O
198 to 200 °C	Nc1ccc(C(=O)NCC(=O)O)cc1
60 to 62.5 °C	O=C(O)CCBr
66 to 67 °C	N#CCC(=O)O
152 to 154 °C	CC(=O)Nc1ccc(F)cc1
78 to 79.5 °C	OCC(F)(F)C(F)(F)C(F)(F)CO
-45.1 to -42 °C	CCCCCCOCCO
178 to 183 °C	CC1=C(/C=C/C(C)=C/C=C/C(C)=C/C=C/C=C(C)/C=C/C=C(C)/C=C/C2=C(C)CCCC2(C)C)C(C)(C)CCC1
60 to 61 °C	CC(C)c1ncc([N+](=O)[O-])n1C
62 to 66.5 °C	CCCCCCCCCCCCCCCC(=O)OCC(COC(=O)CCCCCCCCCCCCCCC)OC(=O)CCCCCCCCCCCCCCC
57.5 to 59 °C	COc1ccc(CCCC(=O)O)cc1
221 to 222 °C	CC1=NNC(=O)C1
-141 °C	C/C=C\CCC
51 to 54 °C	Nc1cc(Br)ccc1Br
57 to 59.5 °C	c1ccc2c(c1)Oc1ccccc1S2
76 to 76.5 °C	Cc1ccc2oc(=O)ccc2c1
62 to 67 °C	COC(=O)c1ccc(C#N)cc1
201 to 203 °C	Oc1ccnc2ccccc12

melting point	SMILES
118 to 119 °C	CC(C)c1ccc(C(=O)O)cc1
140 to 141 °C	Cc1ccc(OCC(=O)O)cc1
-28.2 to -28 °C	OCC(F)F
118 to 119 °C	O=C(n1ccnc1)n1ccnc1
64 to 66 °C	CCCCNC(=S)NCCCC
80 to 83.5 °C	Nc1c(Cl)cc(Cl)cc1Br
250 to 253 °C	Cc1cc(O)c(C(C)C)cc1C1(c2cc(C(C)C)c(O)cc2C)OC(=O)c2ccccc21
156 to 158 °C	NNC(=O)c1cccc(Br)c1
-22 to -21.6 °C	CC1CCCC1(C)C (centres undefined)
30.5 to 34 °C	O=[N+]([O-])c1ccc(Cl)cc1Cl
162 to 163 °C	c1ccc2c(c1)OCCOCCOc1ccccc1OCCOCCO2
18 to 18.1 °C	CCCCCCCCCCCCCCCC
178 to 182 °C	Brc1cc(Br)c(Br)cc1Br
184 to 187 °C	Cc1nnc(S)s1
184 °C	CN1CCN(C2=Nc3cc(Cl)ccc3Nc3ccccc32)CC1
-91 to -90.6 °C	CCCCCCC
-96 to -95.5 °C	CCc1cccc(C)c1
28 to 30 °C	CCOC(=O)c1ccccc1[N+](=O)[O-]
120 to 121 °C	Cc1ccc(-c2ccc(C)cc2)cc1
109 to 111 °C	CC(=O)C1C(=O)C=C(C)OC1=O (centres undefined)
-142 °C	CC1CCC(C)(C)C1 (centres undefined)
240 to 241 °C	NC(N)=NC(=O)c1nc(Cl)c(N)nc1N
125 to 129 °C	O=Cc1cc([N+](=O)[O-])ccc1O
-130 °C	CCCCC
-6 to -5.5 °C	Fc1cc(F)cc(F)c1

melting point	SMILES
274 to 278 °C	c1cc2cccc3c4cccc5cccc(c(c1)c23)c54
18 to 19 °C	CCCCCCCCCCCCCC(=O)OC
-78 to -74.7 °C	CCCCC1CCCCC1
-24 to -23.6 °C	CCC(C)(O)CC
83 to 85 °C	COC(=O)c1cc(OC)c(OC)c(OC)c1
43 to 44.5 °C	CCOC(=O)Cc1c[nH]c2ccccc12
205 to 208 °C	CC(=O)Nc1ccccc1O
70 to 72 °C	O=C(c1ccccc1)c1ccncc1
16.5 to 18 °C	O=C(Cl)c1ccc(Cl)cc1Cl
-42 to -41.2 °C	CCCC(O)CCC
-94 to -93 °C	CCCN(CCC)CCC
90.5 to 91 °C	c1ccc2cnncc2c1
86 to 87 °C	CS(=O)(=O)c1ccccc1
-80 to -76 °C	CCOCCOCCO
138 to 140 °C	Cc1ccc2cccc([N+](=O)[O-])c2n1
109 to 111 °C	O=C(O)c1ccccc1C(F)(F)F
6.6 to 7 °C	Cc1ccccc1Cc1ccccc1
88.5 to 89 °C	Cc1cc(C=O)c(C)n1-c1ccccc1
127 to 131 °C	COC(=O)c1ccc(O)cc1
118 °C	CC(Oc1ccccc1)C(=O)O (centres undefined)
118 to 119 °C	CC(C)c1cc(C(C)C)c(C(C)C)cc1C(C)C
-2 to -1.5 °C	Cc1ccc2ccccc2n1
46 to 48 °C	CCC(=O)c1ccc(Br)cc1
28 to 28.9 °C	NCCCCCCCN
122 to 126 °C	O=C1CCN(c2ccccc2)N1

melting point	SMILES
-98 to -97.8 °C	CCCCSC
148 °C	CC1(C)CC(=O)CC(=O)C1
-78 to -76.9 °C	CCCC(C)=O
162 to 163 °C	O=C(O)c1ccc([N+](=O)[O-])cc1C(=O)O
96 to 100 °C	CN(C)c1ccc(C=Nc2ccccc2)cc1
49 to 51 °C	COc1ccc(C(C)=O)cc1OC
60 to 62 °C	c1ccc(SSc2ccccc2)cc1
97 to 98 °C	COc1ccc(CC(=O)O)cc1OC
171 to 172 °C	O=C(O)C(=Cc1ccccc1)c1ccccc1
55 to 59 °C	Cc1cc(Cl)nc2ccccc12
162 to 163 °C	O=C(O)c1ccccc1I
5.5 to 6 °C	COc1cc(C)ccc1O
60 to 63 °C	C(#Cc1ccccc1)c1ccccc1
65.5 to 67 °C	CCOC(=O)C(=O)Nc1ccccc1
194 to 195 °C	c1ccc2nc(-c3ccc4ccccc4n3)ccc2c1
94 to 96.5 °C	O=[N+]([O-])c1ccc(CO)cc1
-129 to -128 °C	CC(C)C(C)C
-85 to -83 °C	C=CCSCC=C
14 to 15 °C	CCCCCCCCCCCCC=O
-31.1 to -31 °C	CC(=O)OCCc1ccccc1
18 to 19.5 °C	Cc1ccccc1-c1ccccc1C
-61.5 to -61 °C	C=C1CCC2CC1C2(C)C (centres undefined)
-74 to -73 °C	CCC(C)(C)Cl
139 to 142 °C	O=C(O)c1ccc([N+](=O)[O-])cc1Cl

SMILES	melting point
Oc1ccc(Cc2ccc(O)cc2)cc1	161 to 162 °C
O=[N+]([O-])c1cccc(Cl)c1Cl	61.5 to 62 °C
O=C1C(=O)c2cccc3cccc1c23	258 to 261 °C
Nc1ccc([N+](=O)[O-])cc1	146 to 150 °C
CC(=O)OO	-0.2 to 0.1 °C
O=Cc1ccc(Cl)cc1Cl	71 to 73 °C
COc1ccc(Cc2nccc3cc(OC)c(OC)cc23)cc1OC	147 to 148 °C
Cc1cccc(C)c1	-48 to -47 °C
CN(C)c1ccc(C(=O)c2ccc(N(C)C)cc2)cc1	175 to 179 °C
C=CC#N	-84 to -83.5 °C
ClC(Cl)C(Cl)Cl	-44 to -43 °C
CC(=O)Nc1ccccc1C(=O)O	184 to 186 °C
Cc1cccc(N)c1	-31.3 to -30 °C
CC[N+](=O)[O-]	-89.5 to -89 °C
O=[N+]([O-])c1ccc(Oc2ccc(Cl)cc2Cl)cc1	70 to 70.5 °C
CC(=O)CC(C)C	-84 to -80 °C
COc1ccc(C=O)cc1	-1 to 1 °C
CCCCC(CC)COC(=O)c1ccccc1C(=O)OCC(CC)CCCC (centres undefined)	-55 to -50 °C

SMILES	melting point
C=CCCl	-135 to -134 °C
CC(=O)Nc1ccc(Cl)cc1	178 to 179 °C
O=C(O)C(F)(F)C(F)(F)C(F)(F)C(F)(F)C(F)(F)C(F)(F)C(F)(F)F	54.3 to 55.5 °C
N#CC(C#N)=C(C#N)C#N	198 to 199 °C
N#Cc1ccc(Cl)cc1	92 to 95 °C
O=[N+]([O-])c1cc(Cl)cc(Cl)c1	64 to 65.4 °C
CCC1(c2ccccc2)CCC(=O)NC1=O (centres undefined)	84 to 87.5 °C
c1csc(-c2ccc(-c3cccs3)s2)c1	92 to 93.5 °C
C1CCNCC1	-11 to -7 °C
Cc1ccc(CCl)cc1	4 to 5 °C
O=C(CCl)c1ccccc1	54 to 56.5 °C
O=[N+]([O-])c1ccc2c3c(cccc13)CC2	103 to 104 °C
c1ccc2c(c1)Cc1cc3ccccc3cc1-2	208 to 212 °C
c1ccc(Cn2ccnc2)cc1	69 to 71 °C
Fc1c(F)c(F)c(-c2c(F)c(F)c(F)c(F)c2F)c(F)c1F	67 to 68 °C
O=S(=O)(c1ccc(Cl)cc1)c1ccc(Cl)cc1	148 to 149 °C
Nc1cc(Cl)ccc1Cl	48 to 50 °C
